The values that follow come from patent US20180037903A1, “METHODS AND MEANS FOR INCREASING STRESS TOLERANCE AND BIOMASS IN PLANTS” (THE UNIVERSITY COURT OF THE UNIVERSITY OF GLASGOW, priority 2013, published 2018).

The chains are these.
T1: cYFP-HDA6 (C-terminal half of YFP fused to A. thaliana HISTONE DEACETYLASE 6) (Arabidopsis thaliana, UniProt Q9FML2 1-471)
T1 construct: expressed transiently in tobacco leaf cells; not shown: C-terminal half of YFP (cYFP) from vector pBiFCt-2in1-NN
T1 sequence (looked up): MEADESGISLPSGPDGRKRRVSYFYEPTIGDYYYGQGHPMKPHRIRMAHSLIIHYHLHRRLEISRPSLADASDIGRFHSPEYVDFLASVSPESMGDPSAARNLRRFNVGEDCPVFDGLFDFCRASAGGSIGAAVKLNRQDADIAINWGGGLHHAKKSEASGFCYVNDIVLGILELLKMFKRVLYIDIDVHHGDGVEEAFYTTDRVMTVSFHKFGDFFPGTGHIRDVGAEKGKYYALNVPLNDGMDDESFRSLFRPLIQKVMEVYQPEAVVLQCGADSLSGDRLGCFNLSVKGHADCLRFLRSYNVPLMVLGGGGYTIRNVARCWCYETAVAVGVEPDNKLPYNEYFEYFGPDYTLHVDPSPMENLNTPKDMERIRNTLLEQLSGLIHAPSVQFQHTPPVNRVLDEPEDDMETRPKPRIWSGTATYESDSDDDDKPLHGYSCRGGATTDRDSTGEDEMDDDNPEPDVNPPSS

B1: nYFP-HDC1 (N-terminal half of YFP fused to full length A. thaliana HISTONE DEACETYLASE COMPLEX 1) (other)
chain: MSGVPKRSHEEGVTHPSSSSSVAKYPHEDSGSYPKSPHQPVTPPPAQVHHNHQQPHQHPQSQSQSQPQPHLQALPHPHSHSHSHSPLAAAASASAPYEVESRTVVKVARSEPRDGERRSPLPLVYRSPSLPTTVSSSDPHLTHAPVPMEPRDGAKDGREIRVESRENRSDGREIYGETKREIQGPKGDRDVKFERSVDDFSGKGNTGSYTRNDGREMYGETKREIQGPKSDRDAKFERPGDDFSGKSNAGSYTRDTKFDRENQNYNEQKGEIKMEKEGHAHLAWKEQKDYHRGKRVAEGSTANVDPWVVSRGNPQGPTEVGPKDLSAPVEGSHLEGRETVGENKVDAKNEDRFKEKDKKRKELKHREWGDRDKDRNDRRVSVLVGSVMSEPKEIGREERESDRWERERMEQKDRERNKEKDKDHIKREPRTGAEKEISQNEKELGEASAKPSEQEYVAPEQKKQNEPDNCEKDERETKEKRRERDGDSEAERAEKRSRISEKESEDGCLEGEGATEREKDAFNYGVQQRKRALRPRGSPQTTNRDNVRSRSQDNEGVQGKSEVSIVVYKVGECMQELIKLWKEYDLSHPDKSGDFANNGPTLEVRIPAEHVTATNRQVRGGQLWGTDIYTDDSDLVAVLMHTGYCRPTASPPPPTMQELRTTIRVLPSQDYYTSKLRNNVRSRAWGAGIGCSYRVERCYILKKGGGTIELEPSLTHSSTVEPTLAPMAVERSMTTRAAASNALRQQRFVREVTIQYNLCNEPWIKYSISIVADKGLKKPLFTSARLKKGEVLYLETHSCRYELCFAGEKTIKAIQASQQQSSHEAMETDNNNNKSQNHLTNGDKTDSDNSLIDVFRWSRCKKPLPQKLMRSIGFPLPADHIEVLEENLDWEDVQWSQTGVWIAGKEYTLARVHFLSPN
notes: Expressed transiently in tobacco leaf cells from a 2-in-1 BiFC vector together with the cYFP partner and a full-length RFP; not shown: N-terminal half of YFP (nYFP) from vector pBiFCt-2in1-NN
B2: cYFP-HDA19 (C-terminal half of YFP fused to A. thaliana HISTONE DEACETYLASE 19) (enzyme, Arabidopsis thaliana, UniProt O22446 1-501, looked up)
chain: MDTGGNSLASGPDGVKRKVCYFYDPEVGNYYYGQGHPMKPHRIRMTHALLAHYGLLQHMQVLKPFPARDRDLCRFHADDYVSFLRSITPETQQDQIRQLKRFNVGEDCPVFDGLYSFCQTYAGGSVGGSVKLNHGLCDIAINWAGGLHHAKKCEASGFCYVNDIVLAILELLKQHERVLYVDIDIHHGDGVEEAFYATDRVMTVSFHKFGDYFPGTGHIQDIGYGSGKYYSLNVPLDDGIDDESYHLLFKPIMGKVMEIFRPGAVVLQCGADSLSGDRLGCFNLSIKGHAECVKFMRSFNVPLLLLGGGGYTIRNVARCWCYETGVALGVEVEDKMPEHEYYEYFGPDYTLHVAPSNMENKNSRQMLEEIRNDLLHNLSKLQHAPSVPFQERPPDTETPEVDEDQEDGDKRWDPDSDMDVDDDRKPIPSRVKREAVEPDTKDKDGLKGIMERGKGCEVEVDESGSTKVTGVNPVGVEEASVKMEEEGTNKGGAEQAFPPKT
notes: expressed transiently in tobacco leaf cells; not shown: C-terminal half of YFP (cYFP) from vector pBiFCt-2in1-NN

Series [1] deals with A. thaliana seeds. Briefly: Germination assay on agar plates (seedlings with green cotyledons on day 6 after sowing). It counts as in vivo, Arabidopsis thaliana. To be noted: for cumulative germination rate: increasing concentrations in agar, all lines (wildtype, hdc1-1, HDC1-OX), scored after 6 days. How it is done: (§1) All experiments were carried out in controlled growth rooms at a temperature of 20-22° C. and a light intensity of 120-150 μmol PAR. Plants were grown either in long days (16 h light) or in short days (10 h light) as indicated in text and figure legends. Seeds of A. thaliana wildtype and transgenic lines were sterilized, stratified and germinated on soil or on agar plates. Agar plates contained half strength Murashige & Skoog (MS) media with 1% sucrose and 0.8% agar at pH 5.7. For germination assays media were supplemented with NaCl, ABA (cat. A1049,SIGMA), PAC (Fluka cat. 46046) or TSA (SIGMA cat.T8852) at the concentrations given in the figures. Germination rate was scored on day 6 after sowing by counting seedlings that had developed green cotyledons. Experiments with adult plants were carried out on soil or in hydroponic culture. For the latter, seeds were germinated on agar plates and 2-3 weeks old seedlings were placed perforated lids of black 1-litre plastic containers. The growth medium consisted in a minimal sufficient nutrient medium (Kellermeier et al., 2013, PLoS Genet. 7). For salt treatment NaCl powder was stirred directly into the growth container to obtain the desired concentration (as stated in the figures). Control media were stirred without adding NaCl. For controlled drought experiments, plants were grown on soil in pots according to a randomized design. Using previously reported methodology (Granier et al., 2006, New Phytologist 169:623-635; Skirycz et al., 2011, Nat. Biotech. 29:212-214), controlled watering was used to impose moderate water stress. After 14 days of plant growth in well-watered soil, watering was reduced so that the relative soil water content of the stressed plants was maintained at 50% of the normal watering regime. Control plants were watered normally.
Germinating seeds arrest growth and development if they encounter low water potentials in the environment (Finkelstein et al., 2008, In Annual Review of Plant Biology (Palo Alto: Annual Reviews), pp. 387-415). The post-imbibition response is mediated by ABA and can be mimicked by external application of ABA. […] To test a function of HDC1 in this process seeds of A. thaliana wildtype, hdc1-1, and HDC1-0X lines were imbibed to break dormancy, and subsequently plated out on agar plates containing different concentrations of NaCl, mannitol, ABA or PAC. A cumulative germination rate (encompassing all post-imbibition stages of seedling development) was scored as the number of seedlings that had developed cotyledons after 6 days.
To test whether histone deactylation was required for ABA-dependence of seed germination and for the effect of HDC1 on this process, we subjected germinating seeds to the histone deacetylase inhibitor trichostatin A (TSA).

For series [2], the system named is A. thaliana plants. How it is done:
as §1

The target in series [3] is T1, cYFP-HDA6 (C-terminal half of YFP fused …). Briefly: ratiometric BiFC in tobacco leaf cells (nYFP-HDC1 with cYFP-HDA6). As to the method:
(§2) Fluorescence in tobacco epidermal cells was assessed two days post infiltration using a CLSM-510-META-UV confocal microscope (Zeiss, Jena). For single protein localization GFP fluorescence was excited at 488 nm with light from an Argon laser and collected after passage through an NFT545 dichroic mirror with a 505 nm long pass filter. For co-localization experiments GFP fluorescence was collected with a 505-530 band pass filter. RFP fluorescence was excited at 543 nm with light from a Helium Neon laser and was collected after passage through an NFT545 dichroic mirror and a 560-615 nm band pass filter. YFP fluorescence was excited at 514 nm with light from Argon laser and was collected using lambda mode between 520-550 nm. Co-localization plane and line scans were evaluated using Zeiss LSM 510 AIM software (v3.2).
(§3) To investigate whether HDC1 is a member of HDAC protein complexes in plants we tested co-localization and direct interaction of HDC1 with known HDACs of A. thaliana. […] Direct interaction was investigated by bimolecular fluorescence complementation (BiFC). To avoid misinterpretation of background fluorescence we used a new ratiometric BiFC assay (Grefen and Blatt, 2012, supra) in which N- and C-terminal halves of yellow fluorescent protein (YFP), fused to HDC1 and HDA6/19 respectively, and a full-length RFP, are expressed from a single vector FIG. 4A). […]

Series [4] has as its target T2, cYFP-SIN3 (C-terminal half of YFP fused to A. thaliana Sin3-like protein 3) (Arabidopsis thaliana, UniProt O48686 1-1330).
T2 construct: negative control partner for nYFP-HDC1; also called AtSin3; SNL3; not shown: C-terminal half of YFP (cYFP) from vector pBiFCt-2in1-NN
The series can be described thus: ratiometric BiFC in tobacco leaf cells (nYFP-HDC1 with cYFP-SIN3).

The target of series [5] is B2. Briefly: ratiometric BiFC in tobacco leaf cells (nYFP-HDC1 with cYFP-HDA19). How it is done: as §2, §3
The target of series [6] is T3, nYFP-SIN3 (N-terminal half of YFP fused to A. thaliana Sin3-like protein 3) (Arabidopsis thaliana, UniProt O48686 1-1330).
T3 construct: positive control partner for cYFP-HDA19; also called AtSin3; SNL3; not shown: N-terminal half of YFP (nYFP) from vector pBiFCt-2in1-NN
T3 sequence (O48686 whole entry, the tested form may be a part): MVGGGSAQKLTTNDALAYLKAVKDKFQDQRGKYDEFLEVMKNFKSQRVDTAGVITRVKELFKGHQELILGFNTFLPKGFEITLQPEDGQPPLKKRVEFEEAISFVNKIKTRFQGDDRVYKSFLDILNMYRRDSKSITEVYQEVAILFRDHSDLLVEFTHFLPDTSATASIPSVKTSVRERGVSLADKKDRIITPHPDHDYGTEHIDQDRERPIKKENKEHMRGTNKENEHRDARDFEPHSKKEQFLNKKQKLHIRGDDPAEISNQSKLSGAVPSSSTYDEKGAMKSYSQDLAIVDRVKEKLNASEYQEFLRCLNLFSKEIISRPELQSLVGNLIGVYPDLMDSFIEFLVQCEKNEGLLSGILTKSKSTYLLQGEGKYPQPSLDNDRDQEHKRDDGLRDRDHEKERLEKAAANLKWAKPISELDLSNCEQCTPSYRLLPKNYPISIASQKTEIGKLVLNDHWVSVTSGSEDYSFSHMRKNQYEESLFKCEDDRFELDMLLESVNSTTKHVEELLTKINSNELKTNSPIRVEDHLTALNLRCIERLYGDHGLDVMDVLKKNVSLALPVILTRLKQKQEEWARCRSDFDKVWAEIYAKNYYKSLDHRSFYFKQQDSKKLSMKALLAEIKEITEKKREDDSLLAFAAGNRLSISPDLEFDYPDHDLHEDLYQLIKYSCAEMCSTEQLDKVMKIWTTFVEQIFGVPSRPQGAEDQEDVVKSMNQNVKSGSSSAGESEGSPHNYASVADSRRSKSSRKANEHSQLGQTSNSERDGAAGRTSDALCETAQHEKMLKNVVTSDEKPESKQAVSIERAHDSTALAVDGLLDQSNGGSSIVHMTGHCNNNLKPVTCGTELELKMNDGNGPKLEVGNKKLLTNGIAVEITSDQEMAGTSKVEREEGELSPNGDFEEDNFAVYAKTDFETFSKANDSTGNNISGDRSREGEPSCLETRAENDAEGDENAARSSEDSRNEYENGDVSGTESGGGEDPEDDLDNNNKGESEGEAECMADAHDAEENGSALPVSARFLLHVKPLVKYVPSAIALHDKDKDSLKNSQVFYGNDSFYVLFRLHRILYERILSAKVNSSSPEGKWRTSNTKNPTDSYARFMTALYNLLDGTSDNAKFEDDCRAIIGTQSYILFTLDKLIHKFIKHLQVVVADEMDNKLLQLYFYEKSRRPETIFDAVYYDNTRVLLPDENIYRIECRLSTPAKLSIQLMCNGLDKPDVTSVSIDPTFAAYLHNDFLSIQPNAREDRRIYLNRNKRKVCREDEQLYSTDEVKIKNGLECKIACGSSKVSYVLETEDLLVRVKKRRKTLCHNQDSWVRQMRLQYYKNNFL
The series can be described thus: ratiometric BiFC in tobacco leaf cells (nYFP-SIN3 with cYFP-HDA19).

Setting [7] is: 150 mM NaCl for 24 hours, all lines.

T2 sequence (O48686 whole entry, the tested form may be a part): as above

With `CC(C)(C)[C@@H](O)[C@@H](Cc1ccc(Cl)cc1)n1cncn1` (racemic) [PAC, paclobutrazol], the cumulative germination rate result in series [1] is given as “decrease in germination rates”.
On the same count and under the same terms, to `CC1=CC(=O)CC(C)(C)[C@@]1(O)/C=C/C(C)=C\C(=O)O` [ABA, Abscisic acid] belongs “decrease in germination rates”.
Regarding `[Cl-].[Na+]` [NaCl], the chlorosis or desiccation entry in series [2] (80 mM NaCl, 6 days) is “did not produce severe chlorosis or desiccation”. Besides, the growth result in series [2] (80 mM NaCl, 6 days, all lines) is on record as “slowed growth”. Further, the shoot water content in series [2] (80 mM NaCl, after 6 days, all lines, from 92±1% without salt) is listed as 86±1%. In series [2] (setting [7]), the “ABA biosynthesis (shoot ABA levels)” value is “efficiently induced”; the “transcript levels of ABA-receptor PYL4 and 'drought-repressed' gene DR4” value was “efficiently repressed”. For the same molecule, in series [1], the cumulative germination rate result is listed as “decrease in germination rates”.
Consider `CC(/C=C/C(=O)NO)=C\[C@@H](C)C(=O)c1ccc(N(C)C)cc1` [TSA, trichostatin A], for which the “effect on ABA-sensitivity of germination” value is “increased ABA-sensitivity” in series [1] (HDC1-overexpressing lines); “significant effect” in series [1] (wildtype plants, 0.3 μM TSA at 0.2 μM ABA); “significant effect” in series [1] (wildtype plants, 3 μM TSA at 0.4 μM ABA); “increased the ABA-sensitivity” in series [1] (wildtype plants, dose-dependent). Also, the “effect on seed germination” value in series [1] (low-micromolar TSA (0.3 or 3 μM), in the absence of ABA) is “no effect on seed germination”.
For `OC[C@@H](O)[C@@H](O)[C@H](O)[C@H](O)CO` [mannitol], in series [1], the cumulative germination rate result is “decrease in germination rates”.
Consider B1, for which the binding result in series [3] is reported as “binds”; in series [4] it was “no binding”; in series [5], “binds”.
Regarding B2, the binding result in series [6] is reported as “binds”.
